Assay results taken from ChEMBL document CHEMBL1201862, “PubChem BioAssay data set” (2004).
Activity calls are given as the source filed them.

Experiments:
[1] = Counterscreen for AddAB inhibitors: absorbance-based bacterial cell-based high throughput dose response assay for inhibitors of bacterial viability. [Related pubchem assays (depositor defined):AID435030, AID449728, AID449731, AID488942, AID488955, AID488956]; assay type: functional
[2] = NIH-3T3 fibroblast cytotoxicity, dose response, cytotoxicity control, cell-based, fluorescence, Alamar Blue, secondary assay (AID 2327); assay type: functional;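 note: NIH-3T3 mouse fibroblasts cultured with fluconazole at 8 µg/mL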
[3] = C. albicans growth with fluconazole, confirmation, fluorescence, retest (AID 2467); assay type: functional, cell-based
Exodeoxyribonuclease V = molecular target: T1, Exodeoxyribonuclease V (Escherichia coli (strain K12), UniProt P04993+P07648+P08394); experiment: E. coli RecBCD inhibitors, dose response, counter-screen for AddAB inhibitor project, absorbance, V66 E. coli, mutant T4 phage (AID 492957); assay type: functional, cell-based, Escherichia coli str. K-12 substr. MG1655
T1 sequence (P04993 whole entry): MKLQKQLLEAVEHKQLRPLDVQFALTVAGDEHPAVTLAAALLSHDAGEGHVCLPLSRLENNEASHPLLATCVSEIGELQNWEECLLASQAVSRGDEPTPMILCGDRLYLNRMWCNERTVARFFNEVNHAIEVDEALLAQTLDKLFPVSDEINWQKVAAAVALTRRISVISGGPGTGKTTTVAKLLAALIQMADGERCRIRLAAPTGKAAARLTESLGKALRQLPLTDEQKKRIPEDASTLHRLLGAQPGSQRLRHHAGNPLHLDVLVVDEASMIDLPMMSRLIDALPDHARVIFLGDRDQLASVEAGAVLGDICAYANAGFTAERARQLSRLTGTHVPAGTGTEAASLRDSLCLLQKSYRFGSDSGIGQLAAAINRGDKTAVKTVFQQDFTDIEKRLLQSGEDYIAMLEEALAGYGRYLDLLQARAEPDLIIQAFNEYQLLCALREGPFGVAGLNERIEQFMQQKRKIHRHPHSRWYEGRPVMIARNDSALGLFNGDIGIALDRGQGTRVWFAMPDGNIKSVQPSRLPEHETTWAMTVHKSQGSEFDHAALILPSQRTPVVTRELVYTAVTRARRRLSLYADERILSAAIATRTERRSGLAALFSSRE
T1 sequence (P07648 whole entry): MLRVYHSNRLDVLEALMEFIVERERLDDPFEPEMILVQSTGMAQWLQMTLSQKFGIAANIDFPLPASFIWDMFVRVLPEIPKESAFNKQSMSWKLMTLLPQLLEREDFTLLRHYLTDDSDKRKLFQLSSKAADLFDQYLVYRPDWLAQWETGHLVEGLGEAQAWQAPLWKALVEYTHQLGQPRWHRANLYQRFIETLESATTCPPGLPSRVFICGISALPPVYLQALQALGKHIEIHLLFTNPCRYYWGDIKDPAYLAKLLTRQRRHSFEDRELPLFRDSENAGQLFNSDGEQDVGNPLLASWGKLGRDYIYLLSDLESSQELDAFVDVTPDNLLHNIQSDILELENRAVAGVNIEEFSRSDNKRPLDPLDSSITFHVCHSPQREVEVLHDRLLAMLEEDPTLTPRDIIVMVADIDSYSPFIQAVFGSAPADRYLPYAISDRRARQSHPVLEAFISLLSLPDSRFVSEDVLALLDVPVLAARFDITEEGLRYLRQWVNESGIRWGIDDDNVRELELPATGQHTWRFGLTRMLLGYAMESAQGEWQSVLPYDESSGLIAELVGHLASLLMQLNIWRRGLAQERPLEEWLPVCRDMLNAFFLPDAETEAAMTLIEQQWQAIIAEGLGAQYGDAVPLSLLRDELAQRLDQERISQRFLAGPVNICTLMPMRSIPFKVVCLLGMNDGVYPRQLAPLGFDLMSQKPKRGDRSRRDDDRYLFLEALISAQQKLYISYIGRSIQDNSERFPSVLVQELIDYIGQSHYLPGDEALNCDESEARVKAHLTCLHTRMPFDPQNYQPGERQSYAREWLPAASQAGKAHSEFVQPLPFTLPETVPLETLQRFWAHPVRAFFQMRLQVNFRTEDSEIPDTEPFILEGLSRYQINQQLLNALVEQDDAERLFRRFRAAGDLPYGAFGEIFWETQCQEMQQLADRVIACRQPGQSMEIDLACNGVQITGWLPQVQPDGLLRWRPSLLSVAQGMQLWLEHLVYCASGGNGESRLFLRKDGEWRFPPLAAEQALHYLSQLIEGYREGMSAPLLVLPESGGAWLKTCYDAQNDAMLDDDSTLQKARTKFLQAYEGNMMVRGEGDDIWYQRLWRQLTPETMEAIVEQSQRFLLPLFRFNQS
T1 sequence (P08394 whole entry): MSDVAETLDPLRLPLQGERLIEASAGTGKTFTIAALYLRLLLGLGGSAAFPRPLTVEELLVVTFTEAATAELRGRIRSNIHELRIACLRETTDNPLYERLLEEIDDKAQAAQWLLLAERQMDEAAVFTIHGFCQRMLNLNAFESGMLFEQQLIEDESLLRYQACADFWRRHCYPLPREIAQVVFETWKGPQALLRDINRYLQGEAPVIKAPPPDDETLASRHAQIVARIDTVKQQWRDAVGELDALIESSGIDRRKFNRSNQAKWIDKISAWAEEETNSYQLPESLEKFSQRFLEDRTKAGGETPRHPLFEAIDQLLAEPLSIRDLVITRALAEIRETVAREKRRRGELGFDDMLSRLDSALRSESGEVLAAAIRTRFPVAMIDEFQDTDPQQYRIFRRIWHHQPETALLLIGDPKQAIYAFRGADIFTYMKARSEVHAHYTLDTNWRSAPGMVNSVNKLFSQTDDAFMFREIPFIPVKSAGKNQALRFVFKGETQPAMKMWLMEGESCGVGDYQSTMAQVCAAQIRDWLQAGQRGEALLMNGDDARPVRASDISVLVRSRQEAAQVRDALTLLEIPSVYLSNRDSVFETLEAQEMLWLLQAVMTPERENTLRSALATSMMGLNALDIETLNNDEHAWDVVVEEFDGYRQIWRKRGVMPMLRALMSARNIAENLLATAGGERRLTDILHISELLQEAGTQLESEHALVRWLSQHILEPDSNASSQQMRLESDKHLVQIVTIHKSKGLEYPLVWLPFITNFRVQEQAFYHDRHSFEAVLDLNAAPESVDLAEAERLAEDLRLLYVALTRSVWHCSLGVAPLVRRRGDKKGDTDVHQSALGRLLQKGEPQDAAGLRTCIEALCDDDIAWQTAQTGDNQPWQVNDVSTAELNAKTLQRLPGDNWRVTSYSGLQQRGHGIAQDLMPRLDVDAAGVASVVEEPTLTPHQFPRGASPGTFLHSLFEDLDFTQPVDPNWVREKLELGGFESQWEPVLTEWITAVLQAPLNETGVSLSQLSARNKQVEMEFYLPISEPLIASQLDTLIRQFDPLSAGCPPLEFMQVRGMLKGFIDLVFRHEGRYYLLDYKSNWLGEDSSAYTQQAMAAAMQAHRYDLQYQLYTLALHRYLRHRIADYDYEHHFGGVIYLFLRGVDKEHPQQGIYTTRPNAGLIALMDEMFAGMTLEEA

CCCCC(=O)NC(c1ccco1)c1cc(Cl)c2cccnc2c1O (configuration not stated)
IC50 [1]: > 119 µM (inactive)
EC50 [2]: 25 µM (active)
EC50 [3]: 0.537 µM (active)
IC50 (Exodeoxyribonuclease V): > 119 µM (inactive)

CCCCC(=O)NC(c1ccc(Cl)cc1)c1ccc2cccnc2c1O (configuration not stated)
IC50 [1]: > 119 µM (inactive)
EC50 [2]: 16.6 µM (active)
EC50 [3]: 0.413 µM (active)
IC50 (Exodeoxyribonuclease V): > 119 µM (inactive)

O=C(N/N=C/c1ccccc1O)/C(O)=C\C1=NC2(CCCC2)Cc2ccccc21
IC50 [1]: > 119 µM (inactive)
EC50 [2]: 10.5 µM (active)
EC50 [3]: 0.663 µM (active)
IC50 (Exodeoxyribonuclease V): > 119 µM (inactive)
